Measurements published in patent US7445892B2, “Method of testing anticancer agent-sensitivity of tumor cells” (Eisai Co., Ltd., priority 2000, dated 2008).

How the values were obtained:
LX-1-E2 = experiment: Gene expression analysis by quantitative PCR; type: cell-based, human; details: resistant strain LX-1-E2, 8 μM, 0-12 hours, FIG. 5
Experimental: (§1) Similarly, E7070 was added to the media of an E7070-susceptible strain LX-1 and an E7070-resistant strain LX-1-E2 at a concentration of 8 μM and the cells were cultured. Cells were recovered after 0, 3, 6 and 12 hours. Total RNA was extracted from these cells and subjected to the subsequent analyses. LX-1 (Cancer Chemotherapy Center, Japan Foundation for Cancer Research, Tokyo, Japan) was a cell strain derived from human parvicellular lung cancer, and LX-1-E2 is an E7070-resistant substrain obtained by culturing this LX-1 in the presence of E7070 with gradually increasing the E7070 concentration. In order to confirm that variations in gene expression obtained in Example 2 reflected the susceptibility of a tumor cell to E7070, changes of gene expression in E7070-susceptible cells and E7070-resistant cells were examined by quantitative PCR using RNA shown in Example 1, SYBR Green and ABI Prism 7700 Sequence Detection System (Perkin-Elmer Applied Biosystems). […] The mRNA level in each specimen was quantified by measuring fluorescence intensity. In comparison of two or more specimens, quantitative values were corrected based on the mRNA level of GAPDH in each specimen. The relationships between the drug treatment time and each mRNA level are shown in FIGS. 2 to 5, where the quantified value at 0 hour after the drug treatment was used as a control (100%).

LX-1 = experiment: Gene expression analysis by quantitative PCR; type: cell-based, human; details: susceptible strain LX-1, 8 μM, 0-12 hours, FIG. 3
Experimental: as §1

NS(=O)(=O)c1ccc(S(=O)(=O)Nc2cccc3c(Cl)c[nH]c23)cc1 [E7070, N-(3-chloro-7-indolyl)-1,4-benzenedisulfonamide]
mRNA level variation of S80343, U07919, U11791, M95809, U18291, U63743, M61764 (corrected by GAPDH) (LX-1-E2): U11791 showed an expression change and M95809 and U18291 showed a slight expression change
mRNA level variation of S80343, U07919, U11791, M95809, U18291, U63743, M61764 (corrected by GAPDH) (LX-1): all the genes except for S80343 showed expression variations
